Experiments:
maize seeds [1] = assay: Whole-genome RNA sequencing of tissue from PGR-treated germinating maize seeds/seedlings, gene expression relative to control; type: in vivo; settings: radicle, 144-hour timepoint
Method: This study applied 5 different PGRs to separate treatment groups each comprised of 30 maize seeds. A negative control group of 30 maize seeds was exposed to a control solution devoid of any PGRs. The ability to germinate the seeds and harvest the desired tissues from the seeds and nascent seedlings at 5 timepoints was evaluated, and the total RNA extracted, sequenced and analyzed. […] Ten plates were prepared for each of the 6 groups evaluated (5 treatment groups+1 control group). Each test group included 5 subgroups, each subgroup corresponding to 1 of the 5 harvesting timepoints. Replicates of each subgroup were prepared, such that each of the 5 subgroups of seeds occupied two plates. Group 1 served as the untreated negative control group. Group 2 was treated with a first PGR composition (“PGR 1”) that includes active components containing 0.09 wt % cytokinin (kinetin), 0.03 wt % GA, and 0.045 wt % IBA. Group 3 was treated with kinetin. Group 4 was treated with GA. Group 5 was treated with IBA. […] Expression data for 39,460 different genes was obtained and analyzed to identify which genes were differentially expressed relative to control samples at the timepoints and tissue types sampled and in response to the different treatments applied to each test group.

maize seeds [2] = assay: Germination of treated maize seeds and harvestability of tissue at timepoints (Maize Trial 1); type: in vivo; settings: for non-harvestable seeds (did not germinate): 120-hour timepoint, subgroup 4, radicle and coleoptile
Method: This study applied 5 different PGRs to separate treatment groups each comprised of 30 maize seeds. A negative control group of 30 maize seeds was exposed to a control solution devoid of any PGRs. The ability to germinate the seeds and harvest the desired tissues from the seeds and nascent seedlings at 5 timepoints was evaluated, and the total RNA extracted, sequenced and analyzed. […] Ten plates were prepared for each of the 6 groups evaluated (5 treatment groups+1 control group). Each test group included 5 subgroups, each subgroup corresponding to 1 of the 5 harvesting timepoints. Replicates of each subgroup were prepared, such that each of the 5 subgroups of seeds occupied two plates. Group 1 served as the untreated negative control group. Group 2 was treated with a first PGR composition (“PGR 1”) that includes active components containing 0.09 wt % cytokinin (kinetin), 0.03 wt % GA, and 0.045 wt % IBA. Group 3 was treated with kinetin. Group 4 was treated with GA. Group 5 was treated with IBA. Group 6 was treated with a second PGR composition (“PGR 2”) that includes active components containing 0.11 wt % CPPA and 0.01 wt % cytokinin (kinetin). Stock solutions of the treatments were prepared, each including equal amounts of propylene glycol, which was used to dissolve the kinetin. The amount of each treatment substance applied per seed varied between, but not within, the treatment groups. As shown below in Table 1, the control group was untreated. Each seed within group 2 was treated with 1.2 μL of the PGR 1. Each seed within group 3 was treated with 1.14 μg of kinetin. Each seed within group 4 was treated with 0.572 μg of GA. Each seed within group 5 was treated with 0.381 μg of IBA. Each seed within group 6 was treated with 1.7 μL of PGR 2. The seeds in each group were incubated at 15.5° C. and harvested at 5 timepoints. The first subgroup within each group was harvested after 12 hours of incubation, the second subgroup after 24 hours, the third subgroup after 96 hours, the fourth subgroup after 120 hours, and the fifth subgroup after 144 hours. […]

Row | Structure (SMILES) | expression of gene coding for phosphopantothenate-cysteine ligase protein (maize seeds [1]) | seeds that did not germinate (maize seeds [2]; 144-hour timepoint, subgroup 5) | non-harvestable seeds (did not germinate) (maize seeds [2])
1 | O=C(O)CCCc1c[nH]c2ccccc12 [IBA, indole-3-butyric acid] | increased expression | 1 seeds | 
2 | c1coc(CNc2ncnc3[nH]cnc23)c1 [group 3, kinetin] |  |  | 2 seeds
3 | C=C1C[C@]23C[C@@]1(O)CC[C@H]2[C@@]12C=C[C@H](O)[C@@](C)(C(=O)O1)[C@H]2[C@@H]3C(=O)O [group 4, gibberellic acid] |  |  | 1 seeds

— patent US12180466B2, “Plant tissue collection, RNA extraction and genetic analysis” (WINFIELD SOLUTIONS, LLC, priority 2018, dated 2024)
